Results as given in patent publication US6673812B1, “Preventives/remedies for glaucoma” (Senju Pharmaceutical Co., Ltd., priority 1998, dated 2004).

System: Japanese white rabbits
Experiment: Effect on normal intraocular pressure of white rabbits
Type: in vivo, rabbit
Conditions: 20 μl eye drop, 0.1% or 0.03%
From the text: In this experiment, 0.1% eye drop and 0.03% eye drop containing Compound A (each prepared in Example 2 and Example 3), 0.03% eye drop containing Compound B (prepared in Example 4), 0.1% eye drop and 0.03% eye drop containing Compound C (each prepared in Example 5 and Example 6) and 0.03% eye drop containing Compound D (prepared in Example 7) were used.
Japanese white rabbits (body weight about 2 kg) purchased from Japan Laboratory Animals, INC. were used. These animals were bred in a breeding chamber set to temperature 23±3° C., humidity 55±10% and fed on limited amount of 100 g a day of a solid feed (Labo R Stock, Nihon-Nosan Kogyo K.K.). They were allowed free access to tap water. The rabbits were placed in a holding box for 5 hr a day for acclimation from 2 days prior to the test. […] After measurement of the initial value of the intraocular pressure, various eye drops (20 μl) were instilled into one eye, and a base, which was one of various eye drops except the test drug, was instilled into the other eye in the same manner and taken as the control eye.
The intraocular pressure was measured with time at 30, 60, 90, 120, 150 and 180 min after instillation and thereafter at one hour intervals until the intraocular pressure returned to the initial value, and the duration of the effect was examined.

With `C[C@@H](N)c1ccc(C(=O)Nc2ccnc3[nH]ccc23)cc1.Cl.Cl.O` [Compound D, (R)-(+)-N-(1H-pyrrolo[2,3-b]pyridin-4-yl)-4-(1-aminoethyl)benzamide 2HCl 1H2O] as the molecule, how does the “character (onset, duration) of intraocular pressure lowering effect” value read?
The value was “marked and long lasting intraocular pressure lowering effect”.
